Results on 20 compounds are retold here after ChEMBL document CHEMBL4715706, “Discovery of Benzotriazolo[4,3-d][1,4]diazepines as Orally Active Inhibitors of BET Bromodomains” (ACS Med Chem Lett, 2016).

The EC50 is the concentration giving half of the maximal effect. One may read the IC50 as the concentration that inhibits the measured activity by half. The low end stands for greater potency in that assay, the high end for weaker potency in that assay. The microsomal CLint is the rate of metabolic loss divided by the concentration. A lower microsomal CLint goes with slow turnover.

The structures appear in SMILES notation. Some results are limits rather than exact numbers.

Data set [1] is described as follows: Inhibition of BET in human THP-1 cells assessed as suppression of LPS-induced IL-6 release measured after 16 hrs by chemiluminescence ELISA. The class given is cell-based. Conditions: THP-1, 16 h. For orientation: In an ELISA, binding on a coated surface is turned into a signal by an enzyme label.
For data set [2], the target named is Bromodomain-containing protein 4 (Homo sapiens, UniProt O60885).
Description: Inhibition of His/FLAG-tagged BRD4 BD1 (unknown origin) using histone H4-TetraAcetylated-biotin peptide as substrate incubated for 20 mins by AlphaLISA assay
Data set [3] can be described thus: Protein binding in human plasma. It is filed as ADME, cell-free. Conditions: read-out: PPB (converted).
The nature of data set [4]: Protein binding in dog plasma.
A short description of data set [5]: Protein binding in mouse plasma.
The nature of data set [6]: Intrinsic clearance in dog liver microsomes. For orientation: Liver microsomes are a subcellular fraction often used to study metabolism.
Data set [7] is described as follows: Protein binding in rat plasma. The class given is ADME, cell-free. To be noted: read-out: PPB (converted).
The nature of data set [8]: Intrinsic clearance in mouse liver microsomes.
Data set [9] can be described thus: Intrinsic clearance in human liver microsomes.
The nature of data set [10]: Intrinsic clearance in rat liver microsomes.

As to `Cc1nnc2n1-c1ccc(-c3ccc(N)nc3)cc1N(c1ccc(Cl)cc1)C[C@@H]2C`, in data set [1], the half-maximal effective concentration (EC50) came out at 790 nM. Moreover, the IC50 in data set [2] turned out to be 790 nM.
In the case of `Cc1nnc2n1-c1ccc(-c3cnn(C)c3)cc1N(c1ccc(Cl)cc1)CC2`, the fraction unbound in data set [3] is 0.04; in data set [4], 0.04; in [5], 0.03; in data set [7], 0.05. The intrinsic metabolic clearance (microsomal CLint) in [6] was found to be 91 µL/min/mg; in [8] it was 77 µL/min/mg; in data set [9] it was 14 µL/min/mg; in [10], 154 µL/min/mg. Besides, the EC50 in data set [1] is 130 nM. 44 nM corresponded to half-maximal inhibition in data set [2] (IC50).
Take `Cc1noc2c1-c1ccc(-c3cnn(CC(N)=O)c3)cc1N(c1ccc(C#N)cc1)CC2C` (stereo not given): the fraction unbound in data set [3] was 0.01; in data set [4], 0.01; in data set [5], 0.04; in data set [7], 0.03. Also, the microsomal CLint in data set [6] is 22 µL/min/mg; in [8] it was 44 µL/min/mg; in [9] it was 33 µL/min/mg; in data set [10], 62 µL/min/mg. In data set [1], the EC50 amounted to 67 nM. Besides, inhibition in data set [2] was half-maximal at 31 nM (IC50).
As to `Cc1noc2c1-c1ccc(-c3ccc(=O)n(C)c3)cc1N(c1ccc(C#N)cc1)CC2C` (stereo not given), the fraction unbound in data set [3] was 0.02; in data set [4], 0.02; in data set [5], 0.01; in [7] it was 0.03. The intrinsic clearance (microsomal CLint) in data set [6] amounted to 65 µL/min/mg; in [8], 64 µL/min/mg; in [9], 52 µL/min/mg; in data set [10], 71 µL/min/mg. Moreover, the EC50 in data set [1] turned out to be 94 nM. Moreover, in data set [2], inhibition was half-maximal at 32 nM (IC50).
For `Cc1nnc2n1-c1ccccc1N(c1ccc(Cl)cc1)CC2C` (stereo not given), the fraction unbound in [3] is 0.03; in data set [4], 0.05; in data set [5], 0.04; in data set [7], 0.04. In addition, the microsomal CLint was determined as 83 µL/min/mg in data set [6], 110 µL/min/mg in data set [8], 24 µL/min/mg in data set [9] and 25 µL/min/mg in data set [10]. In data set [1], the half-maximal effective concentration (EC50) was found to be 290 nM. In data set [2], this compound gave an IC50 of 350 nM.
Turning to `CCNC(=O)CC1CN(c2ccc(Cl)cc2)c2ccccc2-n2c(C)nnc21` (stereo not given), the fraction unbound in data set [3] was 0.09; in data set [4] it was 0.09; in data set [5], 0.08; in data set [7] it was 0.13. Further, the microsomal CLint in [6] stood at 33 µL/min/mg; in data set [8] it was 52 µL/min/mg; in data set [9], 44 µL/min/mg; in data set [10], 74 µL/min/mg. Moreover, the EC50 in [1] worked out at 1800 nM. In [2], this compound had an IC50 of 2100 nM.
For the compound `Cc1nnc2n1-c1ccccc1N(c1ccc(Cl)cc1)CC2`, the fraction unbound was 0.05 in data set [3], 0.05 in data set [4], 0.07 in data set [5] and 0.05 in data set [7]. The microsomal CLint in [6] is 390 µL/min/mg; in data set [8], 500 µL/min/mg; in data set [9] it was 154 µL/min/mg; in data set [10], 126 µL/min/mg. In data set [1], the EC50 is 2300 nM. The IC50 in data set [2] came to 1560 nM.
Regarding `Cc1ncnn1-c1ccc2c(c1)N(c1ccc(Cl)cc1)C[C@@H](C)c1nnc(C)n1-2`, in data set [1], the EC50 amounted to 450 nM. Further, half-maximal inhibition in data set [2] (IC50) required 280 nM.
Compound `Cc1nnc2n1-c1ccccc1NCC2` came in with a concentration for half-maximal inhibition (IC50) in [2] of 62000 nM.
For `Cc1nnc2n1-c1ccc(C(N)=O)cc1N(c1ccc(Cl)cc1)C[C@H]2C`, the EC50 in data set [1] was found to be 96 nM. The IC50 in data set [2] came to 65 nM.
In the same order, the values of `Cc1nnc2n1-c1ccc(-c3ccc(=O)n(C)c3)cc1N(c1ccc(Cl)cc1)C[C@H]2C` are 36 nM and 25 nM.
For the compound `Cc1nnc2n1-c1ccc(-n3cncn3)cc1N(c1ccc(Cl)cc1)C[C@H]2C`, in [1], the EC50 is 41 nM. In [2], this compound registered an IC50 of 74 nM.
As to `Cc1nnc2n1-c1ccc(-c3ccc(N)nc3)cc1N(c1ccc(Cl)cc1)CC2C` (stereo not given), the fraction unbound is 0.02 in data set [3], 0.03 in data set [4], 0.02 in [5] and 0.03 in data set [7]. Besides, the microsomal CLint stood at 94 µL/min/mg in [6], 6.4 µL/min/mg in [9] and 34 µL/min/mg in data set [10]. Further, the EC50 in data set [1] worked out at 16 nM. This compound also yielded an IC50 in data set [2] of 26 nM.
Regarding `Cc1noc2c1-c1ccc(-c3cnn(C)c3)cc1N(c1ccc(C#N)cc1)CC2CC(N)=O` (stereo not given), the fraction unbound in data set [3] is 0.01; in [4] it was 0.02; in data set [5] it was 0.04; in data set [7], 0.06. The microsomal CLint in data set [6] turned out to be 69 µL/min/mg; in data set [8], 37 µL/min/mg; in data set [9], 27 µL/min/mg; in data set [10], 22 µL/min/mg. Moreover, the EC50 in [1] was found to be 810 nM. The midpoint of inhibition in [2], the IC50, lay at 310 nM.
Take `Cc1noc2c1-c1ccc(-c3ccc(N)nc3)cc1N(c1ccc(C#N)cc1)CC2C` (stereo not given): the fraction unbound in data set [3] was less than 0.01; in [4], less than 0.01; in data set [5], 0.01; in [7], 0.02. The microsomal CLint in data set [6] stood at 240 µL/min/mg; in data set [8], 44 µL/min/mg; in data set [9] it was 62 µL/min/mg; in [10] it was 210 µL/min/mg. Also, the EC50 in data set [1] was 78 nM. Moreover, it took 36 nM to reach half-maximal inhibition in [2] (IC50).
Regarding `Cc1noc2c1-c1ccc(-c3ccc(N)nc3)cc1N(c1ccc(C#N)cc1)CC2`, the fraction unbound in [3] is less than 0.01; in data set [4], less than 0.01; in [5], less than 0.01; in data set [7], 0.01. Moreover, the microsomal CLint stood at 165 µL/min/mg in data set [6], 101 µL/min/mg in data set [8], 86 µL/min/mg in [9] and 195 µL/min/mg in data set [10]. In addition, the EC50 in data set [1] was determined as 380 nM. In data set [2], this compound displayed an IC50 of 64 nM.
With `Cc1ccc(-c2ccc3c(c2)N(c2ccc(Cl)cc2)C[C@@H](C)c2nnc(C)n2-3)cn1`, in [1], the EC50 amounted to 100 nM. Also, in data set [2], the IC50 was 46 nM.
Regarding `Cc1nnc2n1-c1ccccc1N(c1ccc(Cl)cc1)C(C)C2` (stereo not given), the fraction unbound in [3] was 0.02; in data set [7], 0.03. The results for the microsomal CLint in [9] and in [10] were 25 µL/min/mg and 65 µL/min/mg, respectively. Also, the EC50 in [1] is 3100 nM. Moreover, inhibition in [2] was half-maximal at 1200 nM (IC50).
As to `Cc1nnc2n1-c1ccc(S(C)(=O)=O)cc1N(c1ccc(Cl)cc1)C[C@H]2C`, the EC50 in [1] worked out at 670 nM. Besides, the IC50 in [2] worked out at 1200 nM.
Regarding `Cc1noc2c1-c1ccccc1N(c1ccc(C#N)cc1)CC2`, the fraction unbound in data set [3], in [4], in data set [5] and in data set [7] was less than 0.01 in each case. The microsomal CLint turned out to be 18 µL/min/mg in [6], 22 µL/min/mg in data set [8], 17 µL/min/mg in data set [9] and 24 µL/min/mg in data set [10]. In addition, the EC50 in data set [1] came to 4600 nM. 550 nM corresponded to half-maximal inhibition in [2] (IC50).
